ChEMBL document CHEMBL1201862, “PubChem BioAssay data set” (2004)
Active and inactive are the calls of the source.

What was measured:
[1] = biological target: Luciferin 4-monooxygenase (Photinus pyralis, UniProt P08659); experiment: firefly luciferase enzyme inhibitors, dose response, biochemical, luminescence (AID 1891)
[2] = Luminescence Cell-Based Dose Confirmation HTS to Identify Inhibitors of Platelet Dense Granule Release. [Related pubchem assays: 1663 (Primary HTS), 1678 (Summary of Project)]; format: functional
Cytochrome P450 2D6 = Cytochrome P450 2D6 (Homo sapiens, UniProt P10635);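 also: CYP2D6 member of a cytochrome P450 panel assay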
Cytochrome P450 2C9 = Cytochrome P450 2C9 (Homo sapiens, UniProt P11712)
Cytochrome P450 2C19 = Cytochrome P450 2C19 (Homo sapiens, UniProt P33261); experiment: Cytochrome panel assay with activity outcomes. Panel member name: p450-cyp2c19 Compounds with AC50 equal or less than 10 uM are considered active; format: functional; conditions: read-out: AC50
[3] = biological target: T1, Corticotropin-releasing factor receptor 2/Corticotropin-releasing factor-binding protein (Homo sapiens, UniProt P24387+Q13324); experiment: Dose Response confirmation of uHTS hits for small molecule antagonists of the CRF-binding protein and CRF-R2 receptor complex.; format: functional; conditions: read-out: IC50_Mean
T1 sequence (Q13324 whole entry): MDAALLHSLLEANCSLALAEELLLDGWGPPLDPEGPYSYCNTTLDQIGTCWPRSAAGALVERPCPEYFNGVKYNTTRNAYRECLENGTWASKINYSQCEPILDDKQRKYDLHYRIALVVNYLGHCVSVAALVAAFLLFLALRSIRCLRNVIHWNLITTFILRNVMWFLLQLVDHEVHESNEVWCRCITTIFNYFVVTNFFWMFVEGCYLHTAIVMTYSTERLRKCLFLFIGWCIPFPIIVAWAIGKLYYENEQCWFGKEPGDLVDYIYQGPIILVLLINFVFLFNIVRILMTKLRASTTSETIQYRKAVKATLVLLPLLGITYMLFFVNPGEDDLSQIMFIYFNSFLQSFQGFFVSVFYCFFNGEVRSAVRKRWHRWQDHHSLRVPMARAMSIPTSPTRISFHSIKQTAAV
T1 sequence (P24387 whole entry): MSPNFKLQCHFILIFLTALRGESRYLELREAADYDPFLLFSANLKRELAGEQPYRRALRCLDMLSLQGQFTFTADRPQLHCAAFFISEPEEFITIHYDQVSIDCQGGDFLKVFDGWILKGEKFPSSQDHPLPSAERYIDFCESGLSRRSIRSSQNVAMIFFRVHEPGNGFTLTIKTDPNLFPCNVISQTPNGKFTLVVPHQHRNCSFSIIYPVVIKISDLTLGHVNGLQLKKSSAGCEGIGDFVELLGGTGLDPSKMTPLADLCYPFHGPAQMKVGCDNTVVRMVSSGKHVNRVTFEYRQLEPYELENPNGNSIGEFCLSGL

[4] = biological target: T1, Corticotropin-releasing factor receptor 2/Corticotropin-releasing factor-binding protein; experiment: activators of CRF receptor 2 with binding protein – uHTS hits, confirmation (AID 602473); format: functional; conditions: read-out: EC50_Mean
cells = format: functional
Cytochrome P450 1A2 = biological target: T2, Cytochrome P450 1A2 (Homo sapiens, UniProt P05177);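 also: PubChem cytochrome P450 panel assay, CYP1A2 panel member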
T2 sequence (P05177 whole entry): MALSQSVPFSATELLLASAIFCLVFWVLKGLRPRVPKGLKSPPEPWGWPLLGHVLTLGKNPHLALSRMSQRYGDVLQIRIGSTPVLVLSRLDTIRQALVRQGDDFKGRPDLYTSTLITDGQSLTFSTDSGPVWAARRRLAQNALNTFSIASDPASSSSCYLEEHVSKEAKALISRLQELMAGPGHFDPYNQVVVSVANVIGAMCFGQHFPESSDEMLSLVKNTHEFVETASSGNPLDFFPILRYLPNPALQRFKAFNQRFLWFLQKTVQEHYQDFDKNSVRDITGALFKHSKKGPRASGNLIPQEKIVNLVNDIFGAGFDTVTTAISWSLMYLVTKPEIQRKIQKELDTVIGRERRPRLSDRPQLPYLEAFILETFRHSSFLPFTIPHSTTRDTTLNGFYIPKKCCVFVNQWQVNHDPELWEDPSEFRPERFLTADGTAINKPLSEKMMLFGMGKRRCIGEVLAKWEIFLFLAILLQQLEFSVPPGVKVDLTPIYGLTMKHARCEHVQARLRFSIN

[5] = biological target: T3, Heat shock factor protein 1 (Mus musculus, UniProt P38532); experiment: inhibition of MG132-induced HSE-luciferase signal, confirmation, cell-based, NIH3T3, luminescence, dose retest (AID 2382); format: functional;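 also: NIH3T3 fibroblasts with HSF1-driven luciferase reporter stressed by proteasome inhibitor MG132; luminescence from HSF1-driven luciferase expression after 8 hours of MG132 stress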
T3 sequence (P38532 whole entry): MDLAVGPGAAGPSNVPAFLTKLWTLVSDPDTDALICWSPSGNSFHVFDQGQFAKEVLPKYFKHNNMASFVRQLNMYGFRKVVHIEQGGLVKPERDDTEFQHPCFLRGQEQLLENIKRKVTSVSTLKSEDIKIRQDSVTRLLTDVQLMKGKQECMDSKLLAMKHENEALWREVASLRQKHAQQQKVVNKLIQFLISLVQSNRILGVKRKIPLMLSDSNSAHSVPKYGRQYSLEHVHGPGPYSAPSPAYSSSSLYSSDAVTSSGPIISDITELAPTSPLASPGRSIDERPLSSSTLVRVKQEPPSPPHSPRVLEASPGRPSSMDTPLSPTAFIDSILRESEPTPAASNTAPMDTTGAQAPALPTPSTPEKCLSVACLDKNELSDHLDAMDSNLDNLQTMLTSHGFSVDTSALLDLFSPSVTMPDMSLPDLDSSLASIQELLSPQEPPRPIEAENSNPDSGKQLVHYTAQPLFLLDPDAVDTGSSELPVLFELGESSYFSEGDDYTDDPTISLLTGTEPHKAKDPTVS

Cytochrome P450 3A4 = Cytochrome P450 3A4 (Homo sapiens, UniProt P08684);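 also: CYP3A4 tested as one member of a cytochrome P450 panel screen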
INS1 = experiment: beta cell apoptosis inhibitors, cytokine rescue, dose response, luminescence, retest (AID 449756); format: functional, cell-based; conditions: Rattus norvegicus;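 also: cell death triggered by IL-1 beta plus TNF-alpha plus IFN-gamma mixture; protective hits raise ATP signal compared with cytokine alone wells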
[6] = Luminescence Cell-Based Dose Retest to Confirm Inhibitors of Cancer Stem Cells. [Related pubchem assays (depositor defined):AID2717, AID2721]; format: functional; conditions: Homo sapiens
[7] = cytotoxicity toward NIH3T3 fibroblasts, dose response, counter-screen, cell-based, ATP luminescence, mouse fibroblasts (AID 2010); format: functional;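 also: cells exposed to compound for about 90 hours before reading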
[8] = inhibitors of intracellular T. cruzi replication, confirmation, NIH3T3 host cells, beta-gal luminescence (AID 2044); format: functional, cell-based;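 also: intracellular parasites grown in NIH/3T3 mouse fibroblasts as host cells; luminescent beta-galactosidase reporter signal from transgenic T. cruzi replicating inside host cells; inhibitors lower the luminescence signal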

Cytochrome P450 2C19, sequence (P33261 whole entry): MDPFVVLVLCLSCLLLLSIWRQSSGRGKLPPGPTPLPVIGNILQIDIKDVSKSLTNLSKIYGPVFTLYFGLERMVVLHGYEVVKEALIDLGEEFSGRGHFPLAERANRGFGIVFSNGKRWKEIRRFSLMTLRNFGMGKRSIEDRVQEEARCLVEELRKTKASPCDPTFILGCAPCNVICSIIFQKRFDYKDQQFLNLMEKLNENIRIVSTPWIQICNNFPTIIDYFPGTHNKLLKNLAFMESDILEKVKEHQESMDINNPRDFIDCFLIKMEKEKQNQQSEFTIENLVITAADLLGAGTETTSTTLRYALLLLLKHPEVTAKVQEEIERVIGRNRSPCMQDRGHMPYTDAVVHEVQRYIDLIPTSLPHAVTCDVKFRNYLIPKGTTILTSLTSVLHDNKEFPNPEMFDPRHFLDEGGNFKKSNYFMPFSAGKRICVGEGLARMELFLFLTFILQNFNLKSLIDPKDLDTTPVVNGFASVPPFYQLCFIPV
Cytochrome P450 2D6, sequence (P10635 whole entry): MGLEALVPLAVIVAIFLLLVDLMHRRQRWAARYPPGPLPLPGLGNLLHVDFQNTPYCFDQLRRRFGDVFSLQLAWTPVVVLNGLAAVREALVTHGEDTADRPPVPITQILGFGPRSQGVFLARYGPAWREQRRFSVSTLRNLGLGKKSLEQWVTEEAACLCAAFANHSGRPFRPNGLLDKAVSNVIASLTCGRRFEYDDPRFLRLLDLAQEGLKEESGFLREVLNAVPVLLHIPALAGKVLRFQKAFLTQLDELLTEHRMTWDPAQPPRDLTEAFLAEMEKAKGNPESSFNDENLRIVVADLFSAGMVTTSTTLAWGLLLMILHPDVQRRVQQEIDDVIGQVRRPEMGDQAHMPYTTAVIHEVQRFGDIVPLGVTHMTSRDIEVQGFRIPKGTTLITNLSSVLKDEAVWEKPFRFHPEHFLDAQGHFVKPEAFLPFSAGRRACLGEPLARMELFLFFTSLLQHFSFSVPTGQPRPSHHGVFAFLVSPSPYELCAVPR
Cytochrome P450 2C9, sequence (P11712 whole entry): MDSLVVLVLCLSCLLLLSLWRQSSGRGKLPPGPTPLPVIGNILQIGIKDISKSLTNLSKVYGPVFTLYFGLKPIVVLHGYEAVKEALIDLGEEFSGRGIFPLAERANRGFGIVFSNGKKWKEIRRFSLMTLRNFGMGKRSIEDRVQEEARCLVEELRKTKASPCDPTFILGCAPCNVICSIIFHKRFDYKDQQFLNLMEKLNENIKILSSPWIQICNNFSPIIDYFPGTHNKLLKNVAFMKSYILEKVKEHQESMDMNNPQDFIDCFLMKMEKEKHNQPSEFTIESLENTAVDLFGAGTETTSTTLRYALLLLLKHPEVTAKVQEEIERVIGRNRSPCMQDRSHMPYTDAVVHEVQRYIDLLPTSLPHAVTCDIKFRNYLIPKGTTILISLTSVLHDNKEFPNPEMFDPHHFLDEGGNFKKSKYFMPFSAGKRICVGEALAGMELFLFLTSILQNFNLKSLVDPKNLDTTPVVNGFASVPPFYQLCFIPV
Luciferin 4-monooxygenase, sequence (P08659 whole entry): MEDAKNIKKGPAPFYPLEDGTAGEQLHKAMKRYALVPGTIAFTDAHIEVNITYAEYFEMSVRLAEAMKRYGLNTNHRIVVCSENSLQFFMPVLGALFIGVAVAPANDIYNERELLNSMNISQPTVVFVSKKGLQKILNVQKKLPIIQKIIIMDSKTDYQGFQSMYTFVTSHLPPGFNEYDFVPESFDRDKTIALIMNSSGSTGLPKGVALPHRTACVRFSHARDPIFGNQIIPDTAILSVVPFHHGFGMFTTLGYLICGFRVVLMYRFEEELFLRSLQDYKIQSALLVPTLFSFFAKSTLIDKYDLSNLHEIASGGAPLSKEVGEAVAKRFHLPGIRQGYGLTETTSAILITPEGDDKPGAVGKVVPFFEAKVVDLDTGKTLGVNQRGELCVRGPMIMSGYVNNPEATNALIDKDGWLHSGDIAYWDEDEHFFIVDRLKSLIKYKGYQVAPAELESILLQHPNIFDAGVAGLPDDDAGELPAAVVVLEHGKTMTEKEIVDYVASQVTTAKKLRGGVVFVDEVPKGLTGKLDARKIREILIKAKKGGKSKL
Cytochrome P450 3A4, sequence (P08684 whole entry): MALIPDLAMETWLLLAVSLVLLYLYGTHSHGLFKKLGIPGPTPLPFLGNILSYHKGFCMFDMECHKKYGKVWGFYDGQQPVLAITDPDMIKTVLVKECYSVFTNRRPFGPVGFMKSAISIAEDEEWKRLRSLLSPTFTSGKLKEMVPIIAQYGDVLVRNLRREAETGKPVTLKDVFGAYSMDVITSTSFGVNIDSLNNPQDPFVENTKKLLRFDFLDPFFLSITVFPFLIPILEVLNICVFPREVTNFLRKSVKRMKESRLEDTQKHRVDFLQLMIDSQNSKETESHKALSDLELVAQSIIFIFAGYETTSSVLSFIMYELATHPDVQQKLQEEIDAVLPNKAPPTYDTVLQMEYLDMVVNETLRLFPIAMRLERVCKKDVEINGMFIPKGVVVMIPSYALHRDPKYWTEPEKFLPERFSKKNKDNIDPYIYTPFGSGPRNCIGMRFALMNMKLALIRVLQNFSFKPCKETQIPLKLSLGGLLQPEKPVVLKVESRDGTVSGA

Cc1cccc(NC(=O)C2CCCN(C(=O)NC3CCCCC3)C2)c1C (stereo not given)
EC50 [1]: > 112 µM (not active) | EC50 [2]: > 112 µM (not active)

ClCCNc1nc2cc(Cl)ccc2[nH]1
AC50 (Cytochrome P450 2D6): 6.31 µM (inconclusive) | AC50 (Cytochrome P450 2C9): 4.47 µM (inconclusive) | AC50 (Cytochrome P450 2C19): 15.8 µM (inconclusive)

O=C(NCCc1csc(-c2ccccc2)n1)c1c(F)cccc1Cl
IC50 [3]: > 47.1 µM (inactive) | EC50 [4]: > 53 µM (inactive)

CC(Oc1ccccc1Cl)C(=O)Nc1ccc(S(=O)(=O)N2CCCC2)cc1 (stereo not given)
EC50 [1]: 32 µM (active) | EC50 [2]: > 112 µM (not active)

COc1cc(/C=N/NC(=O)c2ccccn2)ccc1OC(=O)c1cccs1
IC50 (cells): 10.5 µM (active)

CCSc1nnc([C@@H](N)Cc2c[nH]c3ccccc23)o1
AC50 (Cytochrome P450 2D6): 12.6 µM (inconclusive) | AC50 (Cytochrome P450 1A2): 17.8 µM (inconclusive)

CC(C)Cn1c(N2CCN(C(=O)/C=C/c3ccccc3)CC2)nc2ccccc21
EC50 [5]: > 195 µM (not active)

O=C(Nc1ccccn1)c1ccc(C(=O)c2ccccc2)cc1
IC50 (cells): 32.6 µM (active)

O=C(N/N=C/c1cccc(OCc2ccccc2)c1)c1cccs1
AC50 (Cytochrome P450 2D6): 25.1 µM (inconclusive) | AC50 (Cytochrome P450 3A4): 20 µM (inconclusive)

CCc1c(C)nc2ccc(C)cc2c1O
EC50 [5]: > 195 µM (not active)

CCOc1c2ccc(C(=O)N[C@H](C)C3CCCCC3)cc2nn1CC
AC50 (Cytochrome P450 2D6): 10 µM (inconclusive) | AC50 (Cytochrome P450 2C9): 14.1 µM (inconclusive) | AC50 (Cytochrome P450 1A2): 12.6 µM (inconclusive) | AC50 (Cytochrome P450 2C19): 28.2 µM (inconclusive) | AC50 (Cytochrome P450 3A4): 25.1 µM (inconclusive)

COCC(C)n1c(C)cc(C(=O)CSc2nnc(Nc3ccccc3F)s2)c1C (stereo not given)
AC50 (Cytochrome P450 2D6): 25.1 µM (inconclusive) | AC50 (Cytochrome P450 1A2): 28.2 µM (inconclusive)

Cc1cc(NC(=O)c2c(Cl)cccc2Cl)no1
EC50 [1]: > 112 µM (not active) | EC50 [2]: > 112 µM (not active)

COc1cc2sc3ccc(C#CC4(O)CCCCC4)cc3c(=O)c2cc1OC
EC50 [1]: 2.35 µM (active) | EC50 [2]: 4.69 µM (active)

CC(=O)C1=C(O)C(=O)N(Cc2ccccc2)C1c1ccc(F)cc1 (stereo not given)
IC50 [3]: > 47.1 µM (inactive) | EC50 [4]: > 53 µM (inactive)

Cc1cc(C)nc(NC(=O)c2ccc(C)c([N+](=O)[O-])c2)n1
EC50 [5]: > 195 µM (not active)

CCOC(=S)SCC(=O)Nc1nccs1
EC50 [1]: > 112 µM (not active) | EC50 [2]: 21.6 µM (active)

O=C(OCn1nnc2ccccc2c1=O)C1CCCCC1
IC50 (cells): 6.75 µM (active)

CN1CCC(O)(c2ccc(Cl)cc2)C(C(=O)c2ccc(Cl)cc2)C1 (stereo not given)
IC50 (cells): 38.5 µM (active)

S=C(NCCc1ccccc1)N1CCN(Cc2ccc(Cl)c(Cl)c2)CC1
EC50 [5]: > 195 µM (not active)

O=C(O)/C=C/C(=O)Nc1cc(F)ccc1F
EC50 [5]: 35.9 µM (active)

COc1ccc(/C=N/NC(=O)c2ccncc2)cc1CN1CCOCC1
IC50 (cells): 0.64 µM (active)

CCN(CC(=O)Nc1ccccc1OC)C(=O)Cn1cnc2ccccc2c1=O
EC50 [1]: > 112 µM (not active) | EC50 [2]: > 112 µM (not active)

CCOC(=O)c1c(C)[nH]c(C(=O)C(C)OC(=O)c2oc3ccccc3c2COC)c1C (stereo not given)
EC50 [1]: > 112 µM (not active) | EC50 [2]: 5.48 µM (active)

CCOC(=O)CN1C(=O)S/C(=C/c2cc(C)n(C)c2C)C1=O
EC50 [5]: > 195 µM (not active)

COc1ccc(CN=C(S)NNC(=O)c2cc3ccccc3o2)cc1
EC50 [1]: > 112 µM (not active) | EC50 [2]: > 112 µM (not active)

N=C(NOC(=O)c1ccc(Cl)cc1Cl)c1ccccn1
AC50 (INS1): 30 µM (active) | EC50 [1]: 1.05 µM (active) | EC50 [2]: 3.11 µM (active)

Cc1cc(C)n2nc(CC(=O)NNC(=O)c3ccccc3Cl)nc2n1
IC50 [3]: > 47.1 µM (inactive) | EC50 [4]: > 53 µM (inactive)

CCOC(=O)c1cc(NC(=O)Nc2cc(C)ccn2)c(C)nc1C
IC50 [3]: > 47.1 µM (inactive) | EC50 [4]: > 53 µM (inactive)

OC(c1ccccc1)(c1ccccc1)C1CCCN1 (stereo not given)
AC50 (Cytochrome P450 2D6): 25.1 µM (inconclusive) | AC50 (Cytochrome P450 2C19): 1.41 µM (inconclusive)

O=C(Cn1cc(C(F)(F)F)ccc1=O)N1CCN(S(=O)(=O)c2ccccc2)CC1
AC50 (Cytochrome P450 2D6): 11.2 µM (inconclusive) | AC50 (Cytochrome P450 1A2): 39.8 µM (inconclusive) | AC50 (Cytochrome P450 2C19): 31.6 µM (inconclusive)

Cc1ccc(NS(=O)(=O)c2ccc(Cl)c(C(=O)Nc3ccccc3-c3nc4ccccc4[nH]3)c2)cc1C
AC50 [6]: 0.647 µM (active) | EC50 [7]: < 6 µM (inconclusive) | EC50 [1]: > 112 µM (not active) | EC50 [8]: 2.49 µM (active) | EC50 [2]: > 112 µM (not active)

CC(C)(C)NC[C@H](O)c1ccccc1Cl
AC50 (Cytochrome P450 2D6): 31.6 µM (inconclusive)

OCCOCCN1CCN(C(S)=Nc2ccccc2)CC1
IC50 [3]: > 47.1 µM (inactive) | EC50 [4]: > 53 µM (inactive)

CC(=O)c1c(C)n(CCCOC(C)C)c2ccc(O)cc12
EC50 [5]: > 195 µM (not active)

Nc1nc(O)cc(Nc2ccccc2Cl)n1
IC50 [3]: > 47.1 µM (inactive) | EC50 [4]: > 53 µM (inactive)

O=C(Nc1ccc(Cl)c(Cl)c1)N1CCC(N2CCCCC2)CC1
AC50 (Cytochrome P450 2D6): 10 µM (inconclusive) | AC50 (Cytochrome P450 2C19): 39.8 µM (inconclusive) | AC50 (Cytochrome P450 3A4): 22.4 µM (inconclusive)

COc1cccc(Oc2ccc(OC)cc2C(=O)O)c1
IC50 [3]: > 47.1 µM (inactive) | EC50 [4]: > 53 µM (inactive)

COc1ccc(O[C@H]2C=C[C@@H](c3ccccc3)O[C@H]2CO/N=C2/[C@H]3O[C@@H]3[C@@H](O)[C@H]3[C@H]2CCn2c(=O)n(-c4ccccc4)c(=O)n23)cc1
AC50 (Cytochrome P450 2D6): 3.98 µM (inconclusive) | AC50 (Cytochrome P450 2C9): 2 µM (inconclusive)

SC1=NCN(CCc2ccccc2)CN1Cc1ccccc1
IC50 [3]: > 47.1 µM (inactive) | EC50 [4]: > 53 µM (inactive)

O=C(NCC1CCCO1)C1c2ccccc2C(=O)N1Cc1ccc2c(c1)OCO2 (stereo not given)
AC50 (Cytochrome P450 2D6): 15.8 µM (inconclusive) | AC50 (Cytochrome P450 2C9): 11.2 µM (inconclusive) | AC50 (Cytochrome P450 1A2): 15.8 µM (inconclusive)
